Several values for one entry are separate records, joined by “and”; a condition that tells them apart may be missing. Equal values may be shown once. Entries after “also recorded” stand apart in the source; their conditions may differ. Read-outs that look alike come from different tables or passages of the source.
How the values were obtained:
Au(III) embedded MspA-M [1] = target: T1, Au(III) embedded MspA-M (Mycolicibacterium smegmatis, UniProt A0QR29, D117N/D118M/D120N/D145R/D161R/E166K); type: binding
Au(III) embedded MspA-M [2] = target: T1, Au(III) embedded MspA-M; type: binding; remark: listed apart in the source
[3] = target: [AuCl4]− embedded MspA-M nanopore (Mycolicibacterium smegmatis, UniProt A0QR29, D117N/D118M/D120N/D145R/D161R/E166K)
Sequence of [AuCl4]− embedded MspA-M nanopore (A0QR29 28-211 D117N/D118M/D120N/D145R/D161R/E166K): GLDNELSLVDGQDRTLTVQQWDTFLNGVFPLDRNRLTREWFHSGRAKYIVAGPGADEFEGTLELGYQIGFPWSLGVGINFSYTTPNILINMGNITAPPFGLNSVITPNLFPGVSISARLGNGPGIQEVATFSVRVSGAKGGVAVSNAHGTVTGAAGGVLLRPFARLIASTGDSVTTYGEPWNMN

T1 sequence (A0QR29 28-211 D117N/D118M/D120N/D145R/D161R/E166K limits assumed): as the sequence (A0QR29 28-211 D117N/D118M/D120N/D145R/D161R/E166K) above

For `N[C@@H](CCS)C(=O)O` [L-Homocysteine, L-homocysteine], the “ΔI0−1, Hcy/I0” value (Au(III) embedded MspA-M [1]) was 0.13±0.01 and 0.123 ± 0.01 and 0.129 ± 0.01 and 0.131 ± 0.01 and the “ΔI1−1, Hcy” value (Au(III) embedded MspA-M [1]) was 21.8 pA and 22.7 pA and 23.6 pA.

For `CSCC[C@H](N)C(=O)O` [L-Methionine, L-methionine], the “absolute blockage amplitude from single L-methionine” value (Au(III) embedded MspA-M [2]) was “approximately 37 pA”, the “amplitude, times larger than previously reported amino acid sensing using engineered α-HL” value (Au(III) embedded MspA-M [2]) was “about 10 times” and the “dwell time of state 3, three independent measurements” value (Au(III) embedded MspA-M [2]) was 10.05 ± 1.73 ms. For the same molecule, the “ΔI1-3, three independent measurements” value (Au(III) embedded MspA-M [2]) was 48.67±0.91 pA.

In the case of `N[C@@H](CCC(=O)N[C@@H](CS)C(=O)NCC(=O)O)C(=O)O` [L-Glutathione, L-glutathione], the “ΔI0−1, GSH/I0” value (Au(III) embedded MspA-M [1]) is reported as 0.167 ± 0.023 and 0.151 ± 0.015 and 0.145 ± 0.015 and the “ΔI1−1, GSH” value (Au(III) embedded MspA-M [1]) is reported as 23.3 pA and 29.2 pA and 25.1 pA.

`NCC(=O)O` [L-glycine, reference compound] was tested, and the “events like state 3 / extra sensing signals” value (Au(III) embedded MspA-M [2]) was “No extra sensing signals; also recorded: no events at all like state 3”.

`N[C@@H](CS)C(=O)O` [L-Cysteine, L-cysteine] was tested, and the “ΔI0−1, cys/I0” value (Au(III) embedded MspA-M [1]) was 0.104±0.008 and 0.105 ± 0.008 and 0.104 ± 0.007 and the “ΔI1−1, Cys” value (Au(III) embedded MspA-M [1]) was 13.7 pA and 13.1 pA and 14.2 pA.

`NC(=O)C[C@H](N)C(=O)O` [L-asparagine, reference compound] was tested, and the “events like state 3 / extra sensing signals” value (Au(III) embedded MspA-M [2]) was “No extra sensing signals; also recorded: no events at all like state 3”.

B1: 78-nt: 78 nucleotide ssDNA composed of a random sequence (Table 6) (nucleic acid)
DNA: AAGCAGACAGGCGGGAAGGTTTTTTTTCTAGAGGGGAATTGTTATCCGCTCACAATTCCCCTATAGTGAGTCGTATTA
modifications: DNA, backbone and methylation of C not given here
B1 gave a ΔI/I0 ([3]; 78-nt ssDNA 4 μM, 10 μM HAuCl4, +100 mV, Blockade level 0) of 0.23 ± 0.027, a Mean dwell time ([3]; 78-nt, Blockade level 0) of 0.23 ± 0.025 ms and a Mean dwell time ([3]; 78-nt, Blockade level 1) of 0.97 ± 0.17 ms. For the same molecule, the ΔI/I0 ([3]; 78-nt, Blockade level 1) was 0.37 ± 0.042, the Mean dwell time ([3]; 78-nt, Blockade level 2) was 5.52 ± 1.14 ms and the ΔI/I0 ([3]; 78-nt, Blockade level 2) was 0.59 ± 0.019. It also gave a Mean dwell time ([3]; 78-nt, Blockade level 3) of 72.81 ± 13.98 ms and a ΔI/I0 ([3]; 78-nt, Blockade level 3) of 0.88 ± 0.035.
